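Where inhibition never reached the appropriate level, the endpoint shown equals the highest concentration tested. Otherwise, values were interpolated linearly from a five-concentration, 48-hour dose response in 96-well plates. The concentration for full growth arrest is given as TGI.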
Legend:
Experiment in all cases: inhibition of tumour cell growth, NCI panel, 48 h
786-0 renal = test system: 786-0 renal
A498 renal = test system: A498 renal
A549 NSCLC = test system: A549 NSCLC
ACHN renal = test system: ACHN renal
CCRF-CEM leukemia = test system: CCRF-CEM leukemia
COLO 205 colon = test system: COLO 205 colon
DMS 114 small cell lung = test system: DMS 114 small cell lung
DMS 273 small cell lung = test system: DMS 273 small cell lung
EKVX NSCLC = test system: EKVX NSCLC
HCC-2998 colon = test system: HCC-2998 colon
HCT-116 colon = test system: HCT-116 colon
HCT-15 colon = test system: HCT-15 colon
HL-60(TB) leukemia = test system: HL-60(TB) leukemia
HOP-18 NSCLC = test system: HOP-18 NSCLC
HOP-62 NSCLC = test system: HOP-62 NSCLC
HOP-92 NSCLC = test system: HOP-92 NSCLC
HT29 colon = test system: HT29 colon
IGROV1 ovarian = test system: IGROV1 ovarian
K-562 leukemia = test system: K-562 leukemia
KM12 colon = test system: KM12 colon
LOX IMVI melanoma = test system: LOX IMVI melanoma
LXFL 529 NSCLC = test system: LXFL 529 NSCLC
M14 melanoma = test system: M14 melanoma
M19-MEL melanoma = test system: M19-MEL melanoma
MALME-3M melanoma = test system: MALME-3M melanoma
MOLT-4 leukemia = test system: MOLT-4 leukemia
NCI-H226 lung = test system: NCI-H226 lung
NCI-H23 lung = test system: NCI-H23 lung
NCI-H460 lung = test system: NCI-H460 lung
NCI-H522 lung = test system: NCI-H522 lung
OVCAR-3 ovarian = test system: OVCAR-3 ovarian
OVCAR-4 ovarian = test system: OVCAR-4 ovarian
OVCAR-5 ovarian = test system: OVCAR-5 ovarian
OVCAR-8 ovarian = test system: OVCAR-8 ovarian
RPMI-8226 leukemia = test system: RPMI-8226 leukemia
SF-268 CNS = test system: SF-268 CNS
SF-295 CNS = test system: SF-295 CNS
SF-539 CNS = test system: SF-539 CNS
SK-MEL-2 melanoma = test system: SK-MEL-2 melanoma
SK-MEL-28 melanoma = test system: SK-MEL-28 melanoma
SK-MEL-5 melanoma = test system: SK-MEL-5 melanoma
SK-OV-3 ovarian = test system: SK-OV-3 ovarian
SN12C renal = test system: SN12C renal
SNB-19 CNS = test system: SNB-19 CNS
SNB-75 CNS = test system: SNB-75 CNS
SNB-78 CNS = test system: SNB-78 CNS
SR leukemia = test system: SR leukemia
SW-620 colon = test system: SW-620 colon
TK-10 renal = test system: TK-10 renal
U251 CNS = test system: U251 CNS
UACC-257 melanoma = test system: UACC-257 melanoma
UACC-62 melanoma = test system: UACC-62 melanoma
UO-31 renal = test system: UO-31 renal
CAKI-1 renal = test system: CAKI-1 renal
DLD-1 colon = test system: DLD-1 colon
KM20L2 colon = test system: KM20L2 colon
XF 498 CNS = test system: XF 498 CNS
BT-549 breast = test system: BT-549 breast
DU-145 prostate = test system: DU-145 prostate
HS 578T breast = test system: HS 578T breast
MCF7 breast = test system: MCF7 breast
MDA-MB-231 breast = test system: MDA-MB-231 breast
MDA-MB-435 = test system: MDA-MB-435
MDA-N = test system: MDA-N
NCI/ADR-RES ovarian = test system: NCI/ADR-RES ovarian
PC-3 prostate = test system: PC-3 prostate
RXF 393 renal = test system: RXF 393 renal
T-47D breast = test system: T-47D breast

Measured: TGI

COc1c(C(=O)O)oc2c(OC)cccc12
not listed: CAKI-1 renal | DLD-1 colon | KM20L2 colon | XF 498 CNS | BT-549 breast | DU-145 prostate | HS 578T breast | MCF7 breast | MDA-MB-231 breast | MDA-MB-435 | MDA-N | NCI/ADR-RES ovarian | PC-3 prostate | RXF 393 renal | T-47D breast
> 100 µM: all other assays above

CN(CN1C(=O)C2Cc3ccccc3CN2C1=O)c1ccccn1 (stereo not given)
not listed: EKVX NSCLC | HCT-116 colon | HOP-18 NSCLC | HOP-92 NSCLC | HT29 colon | SK-OV-3 ovarian | SNB-75 CNS | SNB-78 CNS | UACC-257 melanoma | BT-549 breast | DU-145 prostate | HS 578T breast | MCF7 breast | MDA-MB-231 breast | MDA-MB-435 | MDA-N | NCI/ADR-RES ovarian | PC-3 prostate | RXF 393 renal | T-47D breast
> 100 µM: all other assays above

CCOC(=O)N1CCN(c2ccc3c(C)cc(C)nc3n2)CC1
not listed: DMS 114 small cell lung | DMS 273 small cell lung | HOP-18 NSCLC | LXFL 529 NSCLC | M19-MEL melanoma | SNB-78 CNS | DLD-1 colon | KM20L2 colon | XF 498 CNS
> 100 µM: all other assays above
